Patent US20240041970A1, “TRADITIONAL CHINESE HERBAL COMPOSITION FOR TREATING ALLERGIC CONJUNCTIVITIS AND/OR ALLERGIC RHINITIS” (EYE HOSPITAL, CHINA ACADEMY OF CHINESE MEDICAL SCIENCES, priority 2021, published 2024)

Legend:
[1] = tested on: allergic rhinitis; assay: Clinical efficacy: nasal symptoms and signs (effective rate); assay type: in vivo, human; conditions: 1-week treatment, oral
From the text: (§1) From May 10, 2021 to Aug. 23, 2021, 36 patients diagnosed with allergic conjunctivitis complicated and allergic rhinitis were collected from Eye Hospital, China Academy of Chinese Medical Sciences, and they were divided into 2 groups according to a random number table method with 20 cases in the treatment group and 16 cases in the control group.
(§2) The treatment group was orally administered with the water decoction prepared in Example 1 with one dose a day and for twice a day, and the control group was orally administered with 10 mg of cetirizine capsules once a day.
(§3) 2. Evaluation Indexes: • 1) Ocular and nasal symptoms and signs were standardly divided into 4 grades (0: none, 1: mild: 2: moderate: and 3: severe); • 2) Systemic adverse reactions and local adverse reactions in the eyes and nose were recorded.
Rhinocnesmus: (1) none; (2) mild and intermittent; (3) moderate: an ant walking sensation that can be tolerated; and (4) severe: an ant walking sensation that cannot be tolerated.
Sneezing (number of consecutive sneezings): (1) none; (2) mild: 3-9; (3) moderate: 10-14; (4) severe: ≥15.
Nose running (number of nose blowings per day): (1) none; (2) mild: =4; (3) moderate: 5-9; (4) severe ≥10.
The effective rate evaluation method is based on standards established in Clinical Development Guidelines for Pharmaceutical Products for Treatment of Allergic Rhinoconjunctivitis published by the European Medicines Agency, Chinese Expert Consensus on Diagnosis and Treatment of Allergic Conjunctivitis by Chinese Journal of Ophthalmology, 2018, and Guidelines for Diagnosis and Treatment of Allergic Rhinitis (Chinese Journal of Otorhinolaryngology Head and Neck Surgery, 2016. Vol. 51), and is divided into 4 grades (0: none; 1: mild; 2: moderate; and 3: severe), and it is considered effective if two symptoms (or signs) are improved by one grade or more, or same symptom (or sign) is improved by two grades or more. ((2) to (1), (3) to (2) or (4) to (3) represents a one-grade improvement, and (3) to (1) represents a two-grade improvement).

[2] = tested on: allergic conjunctivitis; assay: Clinical efficacy: ocular symptoms and signs (effective rate); assay type: in vivo, human; conditions: 1-week treatment, oral
From the text: as §1, §2, §3
Eye itching: (1) none; (2) mild: the patient won't notice eye itching when busy at work, but can feel itching when free, or has intermittent eye itching, but it's not severe enough to need to be scratched with hand; (3) moderate: the patient has obvious eye itching, and can still tolerate this symptom, but has the desire to scratch it with hand; and (4) severe: the patient has very obvious and continuous eye itching and stabbing pain, and cannot tolerate these symptoms, and therefore normal life is affected.
Conjunctival congestion: (1) none; (2) mild: congestion takes place in palpebral conjunctiva and fornix in a reticular form; (3) moderate: congestion takes place in palpebral conjunctiva, fornix and bulbar conjunctiva in a reticular form; and (4) severe: congestion takes place in palpebral conjunctiva in a form of red patches, blood vessels are blurred, and obvious congestion takes place in fornix and bulbar conjunctiva;
Conjunctival edema: (1) none; (2) bulbar conjunctival edema can be seen under a slit lamp examination; (3) moderate; bulbar conjunctival edema can be directly seen under natural light; and (4) severe: bulbar conjunctival edema with vesicular protuberances; […]

## O=C(O)COCCN1CCN(C(c2ccccc2)c2ccc(Cl)cc2)CC1 (stereo not drawn) [cetirizine]
[1]
  Effective Rate (nasal efficacy): 75.0%
[1]; number of patients
  Effective (nasal efficacy): 12
  Ineffective (nasal efficacy): 4
[2]
  Effective Rate (ocular efficacy): 68.75%
[2]; number of patients
  Effective (ocular efficacy): 11
  Ineffective (ocular efficacy): 5
